From EP3964206A1, “COMPOUNDS FOR THE TREATMENT OF COVID-19” (priority 2020, dated 2022)
Where a name gives a salt, the structure may show the parent alone. Read-outs that look alike come from different tables or passages of the source.

Tested on: SARS-CoV-2
Assay: microbe, parasite or virus in culture
Format: cell-based
Details: for Emax: read-out: Maximum confluence reached (%)
[1] = Severe acute respiratory syndrome coronavirus 2, 120 h

Compound	IC50 [1]	Emax [1]	Maximum confluence reached (%)	IC50 (read-out: IC50)
CC(C)(C)c1cc(C=C(C#N)C#N)cc(C(C)(C)C)c1O [Compound 103, (3,5-Di-tert-butyl-4-hydroxybenzylidene)malononitrile]	205 µM	–	–	–
Nc1ccc(C(=O)Nc2cccc(-c3nc(N4CCOCC4)c4oc5ncccc5c4n3)c2)cn1 [Compound 104, 6-Amino-N-[3-[4-(4-morpholinyl)pyrido[3',2':4,5]furo[3,2-d]pyrimidin-2-yl]phenyl]pyridine-3-carboxamide]	–	35.5%	–	–
O=C(O)c1ccc(N2C(=O)C(=Cc3ccc(-c4ccc([N+](=O)[O-])cc4)o3)C=C2c2ccccc2)cc1 [Compound 105, 4-[3-[5-(4-Nitrophenyl)furan-2-ylmethylene]-2-oxo-5-phenyl-2,3-dihydro-1H-pyrrol-1-yl]benzoic acid]	236 µM	52.1%	–	–
CCN(CC)Cc1cc(Nc2ccnc3cc(Cl)ccc23)ccc1O [Compound 106, 4-(7-Chloroquinolin-4-ylamino)-2-(diethylaminomethyl)phenol hydrochloride]	21.5 µM	37.5%	–	–
CCN(CC)CCCCNc1ncc2cc(-c3c(Cl)cccc3Cl)c(NC(=O)NC(C)(C)C)nc2n1 [Compound 107, 1-tert-Butyl-3-[6-(2,6-dichlorophenyl)-2-[4-(diethylamino)butylamino]pyrido[2,3-d]pyrimidin-7-yl]urea]	145 µM	34.1%	–	–
CC(C)C[C@H](NC(=O)CNC(=O)c1cc(Cl)ccc1Cl)B(O)O [Compound 108, 1(R)-[2-(2,5-Dichlorobenzamido)acetamido]-3-methylbutylboronic acid]	135 µM	30.8%	–	–
CN1CCN(CC/C=C2/c3ccccc3Sc3ccc(S(=O)(=O)N(C)C)cc32)CC1 [Compound 109, (Z)-N,N-Dimethyl-9-[3-(4-methyl-1-piperazinyl)propylidene]thioxanthene-2-sulfonamide]	–	36.5%	–	–
CN(C)C(=O)C(CCN1CCC(O)(c2ccc(Cl)cc2)CC1)(c1ccccc1)c1ccccc1 [Compound 110, 4-[4-(4-Chlorophenyl)-4-hydroxypiperidin-1-yl]-N,N-dimethyl-2,2-diphenylbutyramide hydrochloride]	–	34.4%	–	–
(1R,2S,3R)-3-(6-Amino-9H-purin-9-yl)-1,2-cyclopentanediol [Compound 75]	–	–	33.14%	0.36 µM
(4R,4aS)-18-Ethenyl-4,4a-dihydro-3,4-bis(methoxycarbonyl)-4a,8,14,19-tetramethyl-24H,26H-benzo[b]porphine-9,13-dipropanoic acid monomethyl ester [Compound 39]	–	–	89.5%	30 µM
